This note sets out measurements from article PMC4744035, “In Vivo, In Vitro, and In Silico Characterization of Peptoids as Antimicrobial Agents” (PLoS ONE, 2016).

Values after ≈ are worked out from the molar mass of the structure shown. Square brackets hold non-standard residues; d marks the D form. Peptide text beside a SMILES is read from it. Nspe = C[C@H](NCC(=O)O)c1ccccc1; Nlys = NCCCCNCC(=O)O

Common to all, as to experiment: microbe, parasite or virus in culture
In assay [1] the test system is E. faecium T62764 (VRE). The following applies: E. faecium T62764 (VRE). In short, it runs like this: (§1)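 Agents were diluted serially at 10x in acetic acid/BSA, added to Mueller Hinton medium, then inoculated with bacteria at 2–7 x 10^5 CFU/mL. Plates were incubated overnight at 37°C and scored for growth.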
For assay [2], the system named is P. aeruginosa H103 (wild type). The following applies: P. aeruginosa H103 (wild type). In short, it runs like this: as §1
Assay [3] deals with K. pneumonia 63575 (ESBL). The note with it: K. pneumonia 63575 (ESBL). In short, it runs like this: as §1
The test system of assay [4] is P. aeruginosa LES400 (MDR). The note with it: P. aeruginosa LES400 (MDR). The gist of the method: as §1
For assay [5], the system named is S. aureus ATCC25923. The following applies: S. aureus ATCC25923. The gist of the method:
as §1

For assay [6], the system named is K. pneumonia 61962 (ESBL). The note with it: K. pneumonia 61962 (ESBL). In short, it runs like this: as §1
Assay [7] deals with E. cloacae 218R Class C β-lactamase. The note with it: E. cloacae 218R Class C β-lactamase. The gist of the method:
as §1

Assay [8] deals with P. aeruginosa H1030 (MDR). The following applies: P. aeruginosa H1030 (MDR). In short, it runs like this:
as §1

In assay [9] the test system is S. aureus C623 (MRSA). The following applies: S. aureus C623 (MRSA). The gist of the method:
as §1

Assay [10] relates to P. aeruginosa 9 (MDR). The following applies: P. aeruginosa 9 (MDR). The gist of the method: as §1
The subject of assay [11] is P. aeruginosa 198 (MDR). The following applies: P. aeruginosa 198 (MDR). In short, it runs like this: as §1
Assay [12] relates to E. faecalis ATCC29212. The note with it: E. faecalis ATCC29212. In short, it runs like this:
as §1

Consider `C[C@@H](c1ccccc1)N(CC(N)=O)C(=O)CN(C(=O)CN(CCCCN)C(=O)CN(C(=O)CN(C(=O)CN(CCCCN)C(=O)CN(C(=O)CN(C(=O)CN(CCCCN)C(=O)CN(C(=O)CN(C(=O)CNCCCCN)[C@@H](C)c1ccccc1)[C@@H](C)c1ccccc1)[C@@H](C)c1ccccc1)[C@@H](C)c1ccccc1)[C@@H](C)c1ccccc1)[C@@H](C)c1ccccc1)[C@@H](C)c1ccccc1` [Peptoid 1, H-(NLys-Nspe-Nspe)4-NH2] (H-[Nlys][Nspe][Nspe][Nlys][Nspe][Nspe][Nlys][Nspe][Nspe][Nlys][Nspe][Nspe]-NH2), for which the MIC in assay [1] stood at 2 µg/mL (≈ 1.1 µM); in [2] it was 2 µg/mL (≈ 1.1 µM); in assay [3], 4 µg/mL (≈ 2.2 µM); in assay [4] it was 2 µg/mL (≈ 1.1 µM); in assay [5] it was 2 µg/mL (≈ 1.1 µM); in assay [6], 4 µg/mL (≈ 2.2 µM). Also, the MIC in assay [7] worked out at 2 µg/mL (≈ 1.1 µM); in assay [8], 4 µg/mL (≈ 2.2 µM); in assay [9] it was 2 µg/mL (≈ 1.1 µM); in [10], 16 µg/mL (≈ 8.79 µM); in [11], 4 µg/mL (≈ 2.2 µM); in assay [12] it was 2 µg/mL (≈ 1.1 µM).
